Measured values taken from PMC9773825.

Test: not told

CON(C)Cc1ccc(O)c2c1CC1CC3C(N(C)C)C(O)=C(C(N)=O)C(=O)C3(O)C(O)=C1C2=O (stereo not drawn)
log partition chloroform / water/buffer (pH 3.5, 25): 1.14 log10
log partition octanol / water/buffer (pH 3.5, 25): −0.30 log10
log partition chloroform / water/buffer (pH 5.5, 25): 1.48 log10
log partition octanol / water/buffer (pH 5.5, 25): −0.16 log10
log partition chloroform / water/buffer (pH 7.4, 25): 1.46 log10
log partition octanol / water/buffer (pH 7.4, 25): −0.26 log10
